According to patent US4861798A, “Lipoxygenase inhibitory compounds” (Bristol-Myers Company, priority 1987, dated 1989):
Like-named read-outs stand apart in the source and are kept apart here.

Key:
Assay type in all cases: cell-based
[1] = molecular target: T1, 5-lipoxygenase (Human Leukocyte/PMNL 5-LPO) (Homo sapiens, UniProt P09917); assay: Inhibition of 5-lipoxygenase (5-HETE formation) in human neutrophil/platelet system; details: for % Inhibition at 100 μm: 4-alkoxyphenyl compounds
T1 construct: Human neutrophils and platelets were obtained from the blood of normal volunteers; endogenous in cells; host or cells: human blood leukocytes (neutrophils) of normal volunteers, with 0.1 to 0.5 platelets per leukocyte
T1 sequence (P09917 1-674): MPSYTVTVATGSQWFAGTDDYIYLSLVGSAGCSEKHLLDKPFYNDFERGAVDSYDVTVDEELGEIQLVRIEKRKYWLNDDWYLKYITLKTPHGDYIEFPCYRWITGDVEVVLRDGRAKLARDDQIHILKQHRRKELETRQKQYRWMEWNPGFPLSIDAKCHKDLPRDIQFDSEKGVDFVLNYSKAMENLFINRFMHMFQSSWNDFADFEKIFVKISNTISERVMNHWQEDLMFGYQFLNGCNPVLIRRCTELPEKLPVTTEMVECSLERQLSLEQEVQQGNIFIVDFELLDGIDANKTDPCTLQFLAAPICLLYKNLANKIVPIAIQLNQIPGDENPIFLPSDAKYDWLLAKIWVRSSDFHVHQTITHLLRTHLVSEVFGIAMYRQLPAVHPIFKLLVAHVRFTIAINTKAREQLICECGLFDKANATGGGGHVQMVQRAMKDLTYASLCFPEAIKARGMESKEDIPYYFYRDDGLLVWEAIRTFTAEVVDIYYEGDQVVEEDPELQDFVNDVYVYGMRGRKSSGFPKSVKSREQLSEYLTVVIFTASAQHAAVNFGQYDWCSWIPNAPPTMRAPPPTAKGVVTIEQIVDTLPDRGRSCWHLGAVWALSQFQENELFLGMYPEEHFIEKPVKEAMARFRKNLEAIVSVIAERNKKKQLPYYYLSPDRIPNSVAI
Source text: This test is a measure of the inhibition of the synthesis of lipoxygenase products generated by human neutrophils and platelets. The protocol is similar to that described in the article "Comparative Effects of Indomethacin, Acetylenic Acids, 15-HETE, NDGA and BW755C on the Metabolism of Arachidonic Acid in Human Leukocytes and Platelets", H. Solari, P. Braquet and P. Borgeat, Prost. Leuk. Med. 13, pp. 53-60, 1984.
Human neutrophils and platelets were obtained from the blood of normal volunteers. The blood was collected into tubes containing EDTA as an anticoagulant. The blood was centrifuged at 250×g for 15 minutes and the platelet rich plasma was removed. The cell fraction was mixed with an equal volume of 0.9% saline containing 10 mM dextrose and resuspended in Dulbecco's phosphate buffered saline (PBS) without Mg^++ and Ca^++ and was counted. The cell suspension was adjusted to give a leukocyte count of 2-3×10^7 cells/ml.
Test compounds were dissolved in ethanol and added to polypropylene tubes. To control tubes (drug-free) only ethanol was added. The ethanol was evaporated to dryness under a stream of argon and then 0.1 ml of the cell suspension (2-3×10^6 cells) was added. This mixture was pre-incubated for 5 minutes at 37° and then the reaction was initiated by addition of ^3 H-arachidonic acid, calcium ionophore (A23187), and calcium ion. The final concentration of each component was: arachidonic acid, 10 uM; A23187, […]; calcium ion, […]. After 5 minutes the incubations were stopped by addition of an equal volume of methanol. The tubes were spun at 11,000 g for 2 minutes to pellet the precipitated protein. The supernatant was analyzed by HPLC for 5-HETE. The formation of this product is indicative of 5-lipoxygenase activity. Test drugs were evaluated for their ability to inhibit 5-HETE formation. Percent inhibition of varying concentrations of test drugs was determined in duplicate by comparing the peak quantitation in the presence and absence (control) of drug. […] The IC50 values were calculated from log-dose response curves of pooled data from at least two experiments by linear regression analysis.
The activity was tested by the same method as in the previous example.
The enzyme inhibitory activity of these compounds was tested by the same method.

[2] = molecular target: T2, Human Platelet CO (Homo sapiens, UniProt P23219); assay: Inhibition of CO, human platelet; details: for IC50: 95% confidence interval given for some; for inhibition at 100 µM: read-out: % I Human Platelet CO; for inhibition at 100 µM / % I Human Platelet CO: @ 100 μM
T2 construct: Human neutrophils and platelets were obtained from the blood of normal volunteers; endogenous in cells; host or cells: human platelets from blood of normal volunteers
T2 sequence (P23219 24-599): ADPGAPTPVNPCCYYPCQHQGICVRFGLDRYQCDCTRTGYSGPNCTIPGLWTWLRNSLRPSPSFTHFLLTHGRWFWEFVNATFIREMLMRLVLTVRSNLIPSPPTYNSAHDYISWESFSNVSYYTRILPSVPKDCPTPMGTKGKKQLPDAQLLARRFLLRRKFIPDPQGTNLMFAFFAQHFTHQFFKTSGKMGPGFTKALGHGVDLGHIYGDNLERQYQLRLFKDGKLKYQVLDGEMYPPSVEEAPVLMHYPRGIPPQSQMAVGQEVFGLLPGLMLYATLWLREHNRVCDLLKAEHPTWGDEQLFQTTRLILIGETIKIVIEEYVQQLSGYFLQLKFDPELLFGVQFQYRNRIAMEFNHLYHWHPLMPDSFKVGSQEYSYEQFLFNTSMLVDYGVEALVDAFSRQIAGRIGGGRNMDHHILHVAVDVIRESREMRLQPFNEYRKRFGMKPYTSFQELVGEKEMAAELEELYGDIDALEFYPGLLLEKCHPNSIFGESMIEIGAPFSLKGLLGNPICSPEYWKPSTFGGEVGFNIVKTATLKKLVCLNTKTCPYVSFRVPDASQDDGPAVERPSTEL

[3] = molecular target: T3, Human Platelet 12-LPO (Homo sapiens, UniProt P18054); assay: Inhibition of 12-LPO, human platelet; details: for IC50: 95% confidence interval; for inhibition at 100 µM: read-out: % I Human Platelet 12-LPO
T3 construct: Human neutrophils and platelets were obtained from the blood of normal volunteers; endogenous in cells; host or cells: human platelets from blood of normal volunteers
T3 sequence (P18054 1-663): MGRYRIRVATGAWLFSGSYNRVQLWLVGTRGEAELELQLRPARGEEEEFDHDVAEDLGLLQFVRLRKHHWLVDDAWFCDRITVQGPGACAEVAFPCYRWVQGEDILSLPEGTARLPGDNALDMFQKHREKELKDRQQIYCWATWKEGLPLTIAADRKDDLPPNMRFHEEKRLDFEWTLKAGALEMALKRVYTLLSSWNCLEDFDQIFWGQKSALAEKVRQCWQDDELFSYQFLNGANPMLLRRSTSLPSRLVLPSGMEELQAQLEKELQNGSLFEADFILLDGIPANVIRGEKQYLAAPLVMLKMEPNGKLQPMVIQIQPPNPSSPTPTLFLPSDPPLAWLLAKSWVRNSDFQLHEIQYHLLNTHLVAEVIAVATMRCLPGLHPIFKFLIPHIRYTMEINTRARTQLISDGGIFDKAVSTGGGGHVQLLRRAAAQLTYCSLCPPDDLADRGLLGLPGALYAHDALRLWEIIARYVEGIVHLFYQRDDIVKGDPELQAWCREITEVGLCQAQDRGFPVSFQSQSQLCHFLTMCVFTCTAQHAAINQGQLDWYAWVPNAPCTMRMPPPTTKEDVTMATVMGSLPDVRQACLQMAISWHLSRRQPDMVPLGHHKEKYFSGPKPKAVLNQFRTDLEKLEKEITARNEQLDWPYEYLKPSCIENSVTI

[4] = FIG. 1 table, 95% confidence interval, read-out: IC50 Human PMNL 5-LPO
[5] = ring-substituted 9-phenylnonanohydroxamic acids, read-out: IC50 (5-lipoxygenase)
[6] = text comparison with prior-art compound, read-out: IC50 in the 5-lipoxygenase inhibition test
[7] = PMNL, read-out: % I Human PMNL 5-LPO
[8] = Table I, R=H, phenylalkyl hydroxamic acids, read-out: IC50 5-LPO (Inhibition of Human Leukocyte 5-LPO)

CC(C)N(O)C(=O)CCCCCCCCCc1ccccc1 [BMY30218]
IC50 [1, 4]: 0.14 µM | IC50 [2]: 7.6 µM | IC50 [3]: 26.7 µM

Cc1cccc(CCCCCCCCC(=O)NO)c1 [BMY 30182, 9(3-methylphenyl)nonanohydroxamic acid]
IC50 [1, 5]: 6.2 µM

O=C(CCCCCCc1ccccc1)NO [Compound 2a]
IC50 [1, 6]: 20.9 µM

O=C(CCCCCc1ccccc1)NO [reference compound]
IC50 [1, 6]: > 100 µM

CC(C)N(O)C(=O)CCCCc1ccccc1 [BMY30226]
IC50 [1, 4]: 0.9 µM | inhibition at 100 µM [2]: 25% | inhibition at 100 µM [3]: 59%

CCCCCCOc1ccc(CCCCCCCCC(=O)N(O)C(C)C)cc1 [BMY 30240, N-isopropyl 9(4-hexyloxyphenyl)nonanohydroxamic acid]
% Inhibition at 100 μm [1]: 45.8%

O=C(CCCc1ccccc1)NO [BMY30077]
inhibition at 100 µM [1, 7]: 11% | IC50 [1, 8]: > 100 µM

COc1ccc(CCCCCCCCC(=O)NO)cc1 [BMY 30173, 9(4-Methoxyphenyl)nonanohydroxamic acid]
IC50 [1, 5]: 2.4 µM

O=C(CCCCCCCCCCc1ccccc1)NO [Compound 2d]
IC50 [1, 8]: 11 µM

CN(O)C(=O)CCCCCCCCCc1ccccc1 [BMY30217]
IC50 [1, 4]: 0.09 µM | IC50 [2]: 4.6 µM | IC50 [3]: 5.5 µM

O=C(CCCCCCCCCCCCc1ccccc1)NO [n=12, reference compound]
IC50 [1, 8]: > 50 µM

CN(O)C(=O)CCCCCCCCc1ccccc1 [BMY30223]
IC50 [1, 4]: 0.17 µM | IC50 [2]: 2.1 µM | IC50 [3]: 2.5 µM

O=C(CCCCCCCCCCCc1ccccc1)NO [Compound 2e]
IC50 [1, 8]: 10.3 µM

CC(C)N(O)C(=O)CCCCCCc1ccccc1 [BMY30222]
IC50 [1, 4]: 0.07 µM | IC50 [2]: 30.9 µM | IC50 [3]: 12.5 µM

CC(C)N(O)C(=O)CCCCCCCc1ccccc1 [BMY30214]
IC50 [1, 4]: 0.16 µM | IC50 [2]: 4.2 µM | IC50 [3]: 4.5 µM

O=C(CCc1ccccc1)NO [n=2, reference compound]
IC50 [1, 8]: > 100 µM

CC(C)N(O)C(=O)CCCc1ccccc1 [BMY30227]
IC50 [1, 4]: 0.7 µM | inhibition at 100 µM [2]: 7% | inhibition at 100 µM [3]: 31%

O=C(Cc1ccccc1)NO [n=1, reference compound]
IC50 [1, 8]: > 100 µM

CC(C)N(O)C(=O)CCCCCCCCCCCCCCc1ccccc1 [BMY30229]
IC50 [1, 4]: 80 µM | % I Human Platelet CO [2]: inactive | inhibition at 100 µM [3]: 10%

CCCCCCOc1ccc(CCCCCCCCC(=O)NO)cc1 [BMY 30230, 9(4-Hexyloxyphenyl)nonanohydroxamic acid]
% Inhibition at 100 μm [1]: 0%

CN(O)C(=O)CCCCCCCCCCCCCCc1ccccc1 [BMY30228]
IC50 [1, 4]: 25.3 µM | % I Human Platelet CO [2]: inactive | inhibition at 100 µM [3]: 17%

O=C(CCCCc1ccccc1)NO [BMY30083]
inhibition at 100 µM [1, 7]: 22% | IC50 [1, 8]: > 100 µM

CCCCOc1ccc(CCCCCCCCC(=O)NO)cc1 [BMY 30239, 9(4-Butoxyphenyl)nonanohydroxamic acid]
% Inhibition at 100 μm [1]: 56.0%

O=C(CCCCCCCc1ccccc1)NO [Compound 2b]
IC50 [1, 4]: 12.2 µM | IC50 [2]: 26 µM | inhibition at 100 µM [3]: 53%

O=C(CCCCCCCCCCCCCCc1ccccc1)NO [BMY30152]
inhibition at 50 µM ([1]; PMNL, @ 50 μM, read-out: % I Human PMNL 5-LPO): 7.5% | IC50 [1, 8]: > 100 µM

O=C(NO)c1ccccc1 [n=0, reference compound]
IC50 [1, 8]: > 100 µM

COc1cccc(CCCCCCCCC(=O)NO)c1 [BMY 30181, 9(3-methoxyphenyl)nonanohydroxamic acid]
IC50 [1, 5]: 5.4 µM

O=C(CCCCCCCCCc1ccccc1)NO [Compound 2c]
IC50 [1, 4]: 11.6 µM | IC50 [2]: 32 µM | inhibition at 100 µM [3]: 10%

CC(C)N(O)C(=O)CCCCCCCCc1ccccc1 [BMY30224]
IC50 [1, 4]: 0.18 µM | IC50 [2]: 18.4 µM | IC50 [3]: 13.9 µM

CCCCCCOc1ccc(CCCCCCCCC(=O)N(C)O)cc1 [BMY 30241, N-Methyl 9(4-Hexyloxyphenyl)nonanohydroxamic acid]
% Inhibition at 100 μm [1]: 95.9%

O=C(CCCCCCCCc1ccc(Cl)cc1)NO [BMY 30174, 9(4-chlorophenyl)nonanohydroxamic acid]
IC50 [1, 5]: 6.1 µM
